# Values joined by “and” are separate entries in the source; they are usually repeats but may differ in a detail not shown here. Identical values can stand only once. Like-named read-outs stand apart in the source and are kept apart here.
# Tested on: Enterobacterales
# Assay: MIC, broth microdilution, CDC/FDA Antibiotic Resistance Isolate Bank (Example 7, Tables 8, 11, 12)
# Type: cell-based
smiles,measurement,setting,value
"C[C@@H](O)[C@H]1C(=O)N2C(C(=O)O)=C(S[C@@H]3CN[C@H](C(=O)N(C)C)C3)[C@H](C)[C@H]12 [MEPM, meropenem]",MIC90,,32 µg/mL and >32 µg/mL
same,MIC,Citrobacter freundii,16 µg/mL
same,MIC,"Enterobacte (name cut at the end of the table), KUB No. 5629, AR Bank # 132, NMC (cut), read-out: MIC",2 µg/mL
same,MIC,"Enterobacter cloacae, Enterobacter cloacae complex, KUB No. 5661, AR Bank# 164, NMC-A, read-out: MIC",32 µg/mL
same,MIC,"Enterobacter cloacae, KUB No. 5529, AR Bank # 32, KPC-3, read-out: MIC",0.12 µg/mL
same,MIC,"Enterobacter cloacae, KUB No. 5535, AR Bank # 38, NDM-1, read-out: MIC",> 32 µg/mL
same,MIC,"Enterobacter cloacae, KUB No. 5547, AR Bank # 50, KPC-4, read-out: MIC",0.5 µg/mL
same,MIC,"Enterobacter cloacae, KUB No. 5550, AR Bank # 53, KPC-3, read-out: MIC",2 µg/mL
same,MIC,"Enterobacter cloacae, KUB No. 5557, AR Bank # 60, no carbapenemase gene, read-out: MIC",≤ 0.06 µg/mL
same,MIC,"Enterobacter cloacae, KUB No. 5562, AR Bank # 65, no carbapenemase gene, read-out: MIC",0.25 µg/mL
same,MIC,"Enterobacter cloacae, KUB No. 5569, AR Bank # 72, no carbapenemase gene, read-out: MIC",0.12 µg/mL
same,MIC,"Enterobacter cloacae, KUB No. 5570, AR Bank # 73, no carbapenemase gene, read-out: MIC",≤ 0.06 µg/mL
same,MIC,"Enterobacter cloacae, KUB No. 5590, AR Bank # 93, KPC-6, read-out: MIC",1 µg/mL
same,MIC,"Enterobacter cloacae, KUB No. 5633, AR Bank# 136, KPC-3, read-out: MIC",8 µg/mL
same,MIC,"Enterobacter cloacae, KUB No. 5651, AR Bank# 154, VIM-1, read-out: MIC",4 µg/mL
same,MIC,"Enterobacter cloacae, KUB No. 5660, AR Bank# 163, KPC-2, read-out: MIC",4 µg/mL
same,MIC,"Enterobacter cloacae, KUB No. 5761, AR Bank# 365, KPC-2, read-out: MIC",2 µg/mL
same,MIC,"Enterobacter cloacae, KUB No. 5762, AR Bank# 366, KPC-2, read-out: MIC",1 µg/mL
same,MIC,"Enterobacter cloacae, KUB No. 5763, AR Bank# 367, no carbapenemase genes, read-out: MIC",0.5 µg/mL
same,MIC,"Enterobacter cloacae, KUB No. 5778, AR Bank# 432, no carbapenemase genes, read-out: MIC",0.12 µg/mL
same,MIC,"Enterobacter cloacae, KUB No. 5792, AR Bank# 448, NDM-1, read-out: MIC",16 µg/mL
same,MIC,"Enterobacter cloacae, KUB No. 5807, AR Bank# 501, VIM-1, read-out: MIC",0.5 µg/mL
same,MIC,"Enterobacter cloacae, KUB No. 5808, AR Bank# 502, IMP-8, read-out: MIC",4 µg/mL
same,MIC,"Escherichia coli, KUB No. 5558, AR Bank # 61, KPC-3 (line continued in Table 8-2), read-out: MIC",1 µg/mL
same,MIC,"Escherichia coli, KUB No. 5611, AR Bank # 114, KPC-3, read-out: MIC",2 µg/mL
same,MIC,"Escherichia coli, KUB No. 5634, AR Bank# 137, NDM-6, read-out: MIC",32 µg/mL
same,MIC,"Escherichia coli, KUB No. 5646, AR Bank# 149, NDM-7, read-out: MIC",8 µg/mL
same,MIC,"Escherichia coli, KUB No. 5647, AR Bank# 150, NDM-5, read-out: MIC",> 32 µg/mL
same,MIC,"Escherichia coli, KUB No. 5648, AR Bank# 151, NDM-5, read-out: MIC",8 µg/mL
same,MIC,"Escherichia coli, KUB No. 5659, AR Bank# 162, NDM-7, read-out: MIC",32 µg/mL
same,MIC,"Escherichia coli, KUB No. 5764, AR Bank# 368, no carbapenemase genes, read-out: MIC",≤ 0.06 µg/mL
same,MIC,"Escherichia coli, KUB No. 5765, AR Bank# 369, no carbapenemase genes, read-out: MIC",≤ 0.06 µg/mL
same,MIC,"Escherichia coli, KUB No. 5766, AR Bank# 370, no carbapenemase genes, read-out: MIC",≤ 0.06 µg/mL
same,MIC,"Escherichia coli, KUB No. 5767, AR Bank# 371, no carbapenemase genes, read-out: MIC",≤ 0.06 µg/mL
same,MIC,"Escherichia coli, KUB No. 5768, AR Bank# 372, no carbapenemase genes, read-out: MIC",≤ 0.06 µg/mL
same,MIC,"Escherichia coli, KUB No. 5769, AR Bank# 373, no carbapenemase genes, read-out: MIC",≤ 0.06 µg/mL
same,MIC,"Escherichia coli, KUB No. 5770, AR Bank# 374, no carbapenemase genes, read-out: MIC",≤ 0.06 µg/mL
same,MIC,"Escherichia coli, KUB No. 5774, AR Bank# 378, no carbapenemase genes, read-out: MIC",≤ 0.06 µg/mL
same,MIC,"Escherichia coli, KUB No. 5779, AR Bank# 433, no carbapenemase genes, read-out: MIC",≤ 0.06 µg/mL
same,MIC,"Escherichia coli, KUB No. 5780, AR Bank# 434, no carbapenemase genes, read-out: MIC",≤ 0.06 µg/mL
same,MIC,"Escherichia coli, KUB No. 5781, AR Bank# 435, NDM-1, read-out: MIC",32 µg/mL
same,MIC,"Escherichia coli, KUB No. 5782, AR Bank# 436, no carbapenemase genes, read-out: MIC",≤ 0.06 µg/mL
same,MIC,"Escherichia coli, KUB No. 5783, AR Bank# 437, no carbapenemase genes, read-out: MIC",≤ 0.06 µg/mL
same,MIC,"Escherichia coli, KUB No. 5794, AR Bank# 450, no carbapenemase genes, read-out: MIC",16 µg/mL
same,MIC,"Escherichia coli, KUB No. 5796, AR Bank# 452, NDM-5, read-out: MIC",2 µg/mL
same,MIC,"Klebsiella aerogenes, Enterobacter aerogenes, KUB No. 5559, AR Bank # 62, no carbapenemase gene, read-out: MIC",0.12 µg/mL
same,MIC,"Klebsiella aerogenes, Enterobacter aerogenes, KUB No. 5571, AR Bank # 74, OXA-48, read-out: MIC",0.5 µg/mL
same,MIC,"Klebsiella aerogenes, Enterobacter aerogenes, KUB No. 5658, AR Bank# 161, IMP-4, read-out: MIC",1 µg/mL
same,MIC,"Klebsiella aerogenes, Enterobacter aerogenes, KUB No. 5777, AR Bank# 431, no carbapenemase genes, read-out: MIC",≤ 0.06 µg/mL
same,MIC,Klebsiella ornithinolytica,0.25 µg/mL
same,MIC,"Klebsiella oxytoca, KUB No. 5568, AR Bank # 71, no carbapenemase gene, read-out: MIC",8 µg/mL
same,MIC,"Klebsiella oxytoca, KUB No. 5644, AR Bank# 147, KPC-3, read-out: MIC",0.25 µg/mL
same,MIC,"Klebsiella oxytoca, KUB No. 5771, AR Bank# 375, no carbapenemase genes, read-out: MIC",≤ 0.06 µg/mL
same,MIC,"Klebsiella oxytoca, KUB No. 5776, AR Bank# 380, no carbapenemase genes, read-out: MIC",2 µg/mL
same,MIC,"Klebsiella ozaenae, KUB No. 5548, AR Bank # 51, OXA-181, read-out: MIC",1 µg/mL
same,MIC,"Klebsiella ozaenae, KUB No. 5593, AR Bank # 96, KPC-3, read-out: MIC",32 µg/mL
same,MIC,"Klebsiella pnemnonice, KUB No. 5784, AR Bank# 438, KPC-3, read-out: MIC",> 32 µg/mL
same,MIC,"Klebsiella pneumoniae, KUB No. 5531, AR Bank # 34, IMP-4, read-out: MIC",0.25 µg/mL
same,MIC,"Klebsiella pneumoniae, KUB No. 5536, AR Bank # 39, OXA-181, read-out: MIC",1 µg/mL
same,MIC,"Klebsiella pneumoniae, KUB No. 5537, AR Bank # 40, VIM-27, read-out: MIC",> 32 µg/mL
same,MIC,"Klebsiella pneumoniae, KUB No. 5538, AR Bank # 41, NDM-1, read-out: MIC",8 µg/mL
same,MIC,"Klebsiella pneumoniae, KUB No. 5540, AR Bank # 43, no carbapenemase gene, read-out: MIC",0.5 µg/mL
same,MIC,"Klebsiella pneumoniae, KUB No. 5541, AR Bank # 44, no carbapenemase gene, read-out: MIC",2 µg/mL
same,MIC,"Klebsiella pneumoniae, KUB No. 5543, AR Bank # 46, VIM-27, read-out: MIC",32 µg/mL
same,MIC,"Klebsiella pneumoniae, KUB No. 5544, AR Bank # 47, no carbapenemase gene, read-out: MIC",4 µg/mL
same,MIC,"Klebsiella pneumoniae, KUB No. 5546, AR Bank # 49, NDM-1, read-out: MIC",32 µg/mL
same,MIC,"Klebsiella pneumoniae, KUB No. 5563, AR Bank # 66, OXA-232, read-out: MIC",8 µg/mL
same,MIC,"Klebsiella pneumoniae, KUB No. 5565, AR Bank # 68, OXA-232, NDM-1, read-out: MIC",> 32 µg/mL
same,MIC,"Klebsiella pneumoniae, KUB No. 5573, AR Bank # 76, VIM-1, read-out: MIC",2 µg/mL
same,MIC,"Klebsiella pneumoniae, KUB No. 5576, AR Bank # 79, no carbapenemase gene, read-out: MIC",4 µg/mL
same,MIC,"Klebsiella pneumoniae, KUB No. 5577, AR Bank # 80, IMP-4, read-out: MIC",4 µg/mL
same,MIC,"Klebsiella pneumoniae, KUB No. 5584, AR Bank # 87, no carbapenemase gene, read-out: MIC",≤ 0.06 µg/mL
same,MIC,"Klebsiella pneumoniae, KUB No. 5594, AR Bank # 97, KPC-3, read-out: MIC",32 µg/mL
same,MIC,"Klebsiella pneumoniae, KUB No. 5595, AR Bank # 98, KPC-2, read-out: MIC",8 µg/mL
same,MIC,"Klebsiella pneumoniae, KUB No. 5603, AR Bank # 106, NDM-1, read-out: MIC",> 32 µg/mL
same,MIC,"Klebsiella pneumoniae, KUB No. 5604, AR Bank # 107, no carbapenemase gene, read-out: MIC",16 µg/mL
same,MIC,"Klebsiella pneumoniae, KUB No. 5606, AR Bank # 109, no carbapenemase gene, read-out: MIC",8 µg/mL
same,MIC,"Klebsiella pneumoniae, KUB No. 5609, AR Bank # 112, KPC-3, read-out: MIC",4 µg/mL
same,MIC,"Klebsiella pneumoniae, KUB No. 5610, AR Bank # 113, KPC-3, read-out: MIC",> 32 µg/mL
same,MIC,"Klebsiella pneumoniae, KUB No. 5612, AR Bank # 115, KPC-3, read-out: MIC",8 µg/mL
same,MIC,"Klebsiella pneumoniae, KUB No. 5614, AR Bank # 117, KPC-3, read-out: MIC",16 µg/mL
same,MIC,"Klebsiella pneumoniae, KUB No. 5617, AR Bank # 120, KPC-2, read-out: MIC",16 µg/mL
same,MIC,"Klebsiella pneumoniae, KUB No. 5622, AR Bank # 125, KPC-3, read-out: MIC",16 µg/mL
same,MIC,"Klebsiella pneumoniae, KUB No. 5623, AR Bank # 126, KPC-2, read-out: MIC",4 µg/mL
same,MIC,"Klebsiella pneumoniae, KUB No. 5626, AR Bank # 129, KPC-3, read-out: MIC",4 µg/mL
same,MIC,"Klebsiella pneumoniae, KUB No. 5632, AR Bank# 135, VIM-1, read-out: MIC",0.5 µg/mL

# From patent publication EP4635500A1, “THERAPEUTIC AGENT FOR BACTERIAL INFECTION” (Sumitomo Pharma Co., Ltd., priority 2022, dated 2024)
